Reference: PubChem BioAssay AID192 (DTP/NCI, 2004)
Values joined by “and” are separate entries in the source; they are usually repeats but may differ in a detail not shown here. Equal entries are not always repeated. Toxic doses and inconclusive results are not listed. Rule for the calls: active = survival T/C of 150% or more; inactive = T/C below 125% in these data.

Test system: BDF1 mice, B16 melanoma ip, median survival T/C
Assay: NCI In Vivo Anticancer Drug Screen. Data for tumor model B16 Melanoma (intraperitoneal) in B6D2F1 (BDF1) mice
Conditions: endpoint: median survival time, higher = longer survival
Method in brief: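 Vehicle-treated animals serve as the reference (C); treated animals (T) are scored for survival or tumor size after tumor transplantation.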

[1] = dose: 6.25 mg/kg/injection, schedule: Q01DX009 (ip), vehicle: saline
[2] = dose: 6.25 mg/kg/injection, schedule: Q01DX009 (ip), vehicle: Klucel (hydroxypropylcellulose) (HPC)
[3] = dose: 12.5 mg/kg/injection, schedule: Q01DX009 (ip), vehicle: Klucel (hydroxypropylcellulose) (HPC)
[4] = dose: 25.0 mg/kg/injection, schedule: Q01DX009 (ip), vehicle: saline with Tween-80
[5] = dose: 25.0 mg/kg/injection, schedule: Q04DX003 (ip), vehicle: saline with Tween-80
[6] = dose: 50.0 mg/kg/injection, schedule: Q01DX009 (ip), vehicle: saline with Tween-80
[7] = dose: 100.0 mg/kg/injection, schedule: Q01DX009 (ip), vehicle: saline with Tween-80
[8] = dose: 25.0 mg/kg/injection, schedule: Q01DX009 (ip), vehicle: Klucel (hydroxypropylcellulose) (HPC)
[9] = dose: 50.0 mg/kg/injection, schedule: Q01DX009 (ip), vehicle: Klucel (hydroxypropylcellulose) (HPC)
[10] = dose: 100.0 mg/kg/injection, schedule: Q01DX009 (ip), vehicle: Klucel (hydroxypropylcellulose) (HPC)
[11] = dose: 200.0 mg/kg/injection, schedule: Q01DX009 (ip), vehicle: Klucel (hydroxypropylcellulose) (HPC)
[12] = dose: 12.5 mg/kg/injection, schedule: Q01DX009 (ip), vehicle: saline
[13] = dose: 25.0 mg/kg/injection, schedule: Q01DX009 (ip), vehicle: saline
[14] = dose: 200.0 mg/kg/injection, schedule: Q01DX009 (ip), vehicle: saline with Tween-80
[15] = dose: 1.25 mg/kg/injection, schedule: Q01DX009 (ip), vehicle: Klucel (hydroxypropylcellulose) (HPC)
[16] = dose: 100.0 mg/kg/injection, schedule: Q04DX003 (ip), vehicle: Klucel (hydroxypropylcellulose) (HPC)

Measured: T/C

O=C1C(Br)=C(Br)C(=O)C1(Br)Br
inactive: dose: 1.56 mg/kg/injection, schedule: Q01DX009 (ip), vehicle: saline 100 % of control | dose: 3.13 mg/kg/injection, schedule: Q01DX009 (ip), vehicle: saline 105 % of control | dose: 3.13 mg/kg/injection, schedule: Q04DX003 (ip), vehicle: saline with Tween-80 94 % of control | [1] 102 % of control | dose: 6.25 mg/kg/injection, schedule: Q04DX003 (ip), vehicle: saline with Tween-80 89 % of control

Clc1c(Cl)c(CBr)c(Cl)c(CBr)c1Cl
inactive: dose: 1.56 mg/kg/injection, schedule: Q01DX009 (ip), vehicle: Klucel (hydroxypropylcellulose) (HPC) 100 % of control | [2] 105 % of control | [3] 102 % of control | dose: 12.5 mg/kg/injection, schedule: Q04DX003 (ip), vehicle: saline with Tween-80 86 % of control | [4] 95 % of control | [5] 92 % of control | [6] 97 % of control | [7] 95 % of control

O=C(NNCc1ccccc1)c1ccccn1
inactive: [2] 90 % of control | [8] 90 % of control | [9] 88 % of control and 100 % of control

O=C1NC(=O)C(Cc2ccccc2)(c2ccccc2)N1 (stereo not drawn)
inactive: [6] 105 % of control | [7] 102 % of control

Cc1cccc(NC(=O)Nc2ccccc2Cl)n1
inactive: [9] 90 % of control | [10] 94 % of control | [11] 94 % of control

CC(=O)Nc1cc(F)c([N+](=O)[O-])cc1[N+](=O)[O-]
inactive: dose: 0.63 mg/kg/injection, schedule: Q01DX009 (ip), vehicle: saline with Tween-80 104 % of control | dose: 1.25 mg/kg/injection, schedule: Q01DX009 (ip), vehicle: saline with Tween-80 90 % of control | dose: 2.5 mg/kg/injection, schedule: Q01DX009 (ip), vehicle: saline with Tween-80 104 % of control

CCN(C(=O)COc1ccc(Cl)cc1)c1ccccc1C
inactive: [10] 96 % of control | [11] 106 % of control | dose: 400.0 mg/kg/injection, schedule: Q01DX009 (ip), vehicle: Klucel (hydroxypropylcellulose) (HPC) 96 % of control

CCCCC[C@H](CN(C)C)[C@H](O)/C=C/c1ccc(Cl)cc1
inactive: [1] 95 % of control | [12] 100 % of control | [13] 104 % of control

O=c1cc(-c2ccccc2)[nH]c(=S)[nH]1
inactive: [7] 114 % of control | [14] 108 % of control

CCCCCn1c(C)cc(/C=C\c2ccc3cc(C)ccc3[n+]2C)c1C
inactive: dose: 0.62 mg/kg/injection, schedule: Q01DX009 (ip), vehicle: Klucel (hydroxypropylcellulose) (HPC) 93 % of control | [15] 87 % of control

C[N+](C)(C)CCOc1ccc(Cl)cc1
inactive: dose: 12.5 mg/kg/injection, schedule: Q04DX003 (ip), vehicle: Klucel (hydroxypropylcellulose) (HPC) 105 % of control | dose: 25.0 mg/kg/injection, schedule: Q04DX003 (ip), vehicle: Klucel (hydroxypropylcellulose) (HPC) 107 % of control | dose: 50.0 mg/kg/injection, schedule: Q04DX003 (ip), vehicle: Klucel (hydroxypropylcellulose) (HPC) 107 % of control | [16] 94 % of control

COc1ccc2c(c1)C/C(=N\O)C2=O
inactive: [4] 99 % of control | [6] 114 % of control | [7] 92 % of control

CCCCNC(=O)C1C=C2c3cccc4[nH]cc(c34)CC2N(C)C1 (stereo not drawn)
inactive: dose: 3.12 mg/kg/injection, schedule: Q01DX009 (ip), vehicle: Klucel (hydroxypropylcellulose) (HPC) 93 % of control | [3] 91 % of control | [8] 93 % of control | [9] 96 % of control

COC1=C(Br)[C@H](O)[C@](O)(CC#N)C=C1Br
inactive: dose: 17.5 mg/kg/injection, schedule: Q01DX009 (ip), vehicle: Klucel (hydroxypropylcellulose) (HPC) 105 % of control | [8] 87 % of control | dose: 35.0 mg/kg/injection, schedule: Q01DX009 (ip), vehicle: Klucel (hydroxypropylcellulose) (HPC) 99 % of control | dose: 70.0 mg/kg/injection, schedule: Q01DX009 (ip), vehicle: Klucel (hydroxypropylcellulose) (HPC) 107 % of control

C=CCOc1cccc(OCC=C)c1C
inactive: [7] 106 % of control | [14] 97 % of control

O=C(O)C(=O)O.O=C([O-])C(=O)[O-].O=C([O-])C(=O)[O-].[NH-]CC[NH-].[NH-]CC[NH-].[NH-]CC[NH-].[Ru+4].[Ru+5]
inactive: dose: 12.5 mg/kg/injection, schedule: Q04DX003 (ip), vehicle: water 112 % of control | dose: 25.0 mg/kg/injection, schedule: Q04DX003 (ip), vehicle: water 107 % of control

Clc1ccc2nc(CI)c(CI)nc2c1
inactive: dose: 0.19 mg/kg/injection, schedule: Q01DX009 (ip), vehicle: saline with Tween-80 90 % of control | dose: 0.39 mg/kg/injection, schedule: Q01DX009 (ip), vehicle: saline with Tween-80 90 % of control | dose: 0.78 mg/kg/injection, schedule: Q01DX009 (ip), vehicle: saline with Tween-80 100 % of control | dose: 1.56 mg/kg/injection, schedule: Q01DX009 (ip), vehicle: saline with Tween-80 104 % of control | dose: 6.25 mg/kg/injection, schedule: Q01DX009 (ip), vehicle: saline with Tween-80 102 % of control | dose: 12.5 mg/kg/injection, schedule: Q01DX009 (ip), vehicle: saline with Tween-80 97 % of control | [4] 89 % of control and 97 % of control | [5] 100 % of control | dose: 50.0 mg/kg/injection, schedule: Q04DX003 (ip), vehicle: saline with Tween-80 100 % of control

C[N+](C)(C)C
inactive: dose: 0.37 mg/kg/injection, schedule: Q01DX009 (ip), vehicle: saline 112 % of control | dose: 1.5 mg/kg/injection, schedule: Q01DX009 (ip), vehicle: saline 109 % of control | [12] 95 % of control

Cc1ccc(C(=O)C(c2ccccc2)C(Cl)c2ccccc2)cc1 (stereo not drawn)
inactive: [16] 102 % of control | dose: 200.0 mg/kg/injection, schedule: Q04DX003 (ip), vehicle: Klucel (hydroxypropylcellulose) (HPC) 103 % of control | dose: 400.0 mg/kg/injection, schedule: Q04DX003 (ip), vehicle: Klucel (hydroxypropylcellulose) (HPC) 103 % of control

CN(C)c1ccc(C(=O)c2ccc(N(C)C)cc2)cc1
inactive: dose: 100.0 mg/kg/injection, schedule: Q04DX003 (ip), vehicle: saline 104 % of control | dose: 200.0 mg/kg/injection, schedule: Q04DX003 (ip), vehicle: saline 111 % of control | dose: 400.0 mg/kg/injection, schedule: Q04DX003 (ip), vehicle: saline 100 % of control

CCCCCCCCCCCCCCCCNS(=O)(=O)c1ccc(NN)cc1
inactive: [3] 93 % of control | [8] 96 % of control | [9] 89 % of control and 90 % of control

CN(C)CCCN1Cc2ccccc2Cc2ccccc21
inactive: [1] 105 % of control | [12] 103 % of control | [13] 111 % of control | dose: 50.0 mg/kg/injection, schedule: Q01DX009 (ip), vehicle: saline 101 % of control | dose: 100.0 mg/kg/injection, schedule: Q01DX009 (ip), vehicle: saline 107 % of control

C/C=C(\C)C(=O)O[C@@H]1c2cc3c(cc2-c2c(cc(OC)c(OC)c2OC)[C@@H]2C(=O)OC[C@@H]12)OCO3
inactive: [15] 101 % of control | dose: 2.5 mg/kg/injection, schedule: Q01DX009 (ip), vehicle: Klucel (hydroxypropylcellulose) (HPC) 107 % of control | dose: 5.0 mg/kg/injection, schedule: Q01DX009 (ip), vehicle: Klucel (hydroxypropylcellulose) (HPC) 92 % of control | dose: 10.0 mg/kg/injection, schedule: Q01DX009 (ip), vehicle: Klucel (hydroxypropylcellulose) (HPC) 96 % of control
